Results reported in patent US8435980B2 (AbbVie Inc., priority 2009, dated 2013).

Target: T1, Cdc7 (BEV coexpressed huCDC7/DBF4) (Homo sapiens, UniProt O00311)
T1 construct: made in house; host or cells: BEV (baculovirus expression vector) co-expression; insect cells are implied but no cell line is named
Experiment: Cdc7 enzyme inhibition assay ([33P]ATP, biotinylated peptide substrate, FlashPlate)
Assay type: biochemical
Settings: Table 3; enzyme inhibition data (Ki)
Experimental: Cdc7 (BEV coexpressed huCDC7/DBF4) is prepared internally. Cdc7 assays are conducted as follows with final concentrations as listed. […] Reactions are quenched after 1 hr by the addition of 90 μL stop buffer (50 mM EDTA, 2M NaCl). […] (Ki) for exemplary compounds.

T1 sequence (O00311 whole entry): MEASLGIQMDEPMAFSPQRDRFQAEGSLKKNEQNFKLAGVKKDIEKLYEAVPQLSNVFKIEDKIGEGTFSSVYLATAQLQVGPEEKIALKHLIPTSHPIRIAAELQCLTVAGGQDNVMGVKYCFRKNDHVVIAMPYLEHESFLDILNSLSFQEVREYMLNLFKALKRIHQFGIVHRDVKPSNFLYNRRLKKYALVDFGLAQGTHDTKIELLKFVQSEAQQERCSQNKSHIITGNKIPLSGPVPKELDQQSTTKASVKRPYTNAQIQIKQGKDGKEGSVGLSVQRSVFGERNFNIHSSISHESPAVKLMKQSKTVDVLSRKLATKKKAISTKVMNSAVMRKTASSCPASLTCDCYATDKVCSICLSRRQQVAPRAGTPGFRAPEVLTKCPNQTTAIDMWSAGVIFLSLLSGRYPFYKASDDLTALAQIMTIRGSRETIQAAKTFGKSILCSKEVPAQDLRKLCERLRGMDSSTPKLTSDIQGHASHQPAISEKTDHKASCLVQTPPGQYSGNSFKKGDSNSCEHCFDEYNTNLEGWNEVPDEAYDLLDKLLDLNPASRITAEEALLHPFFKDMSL
T1 sequence (Q9UBU7 whole entry partner): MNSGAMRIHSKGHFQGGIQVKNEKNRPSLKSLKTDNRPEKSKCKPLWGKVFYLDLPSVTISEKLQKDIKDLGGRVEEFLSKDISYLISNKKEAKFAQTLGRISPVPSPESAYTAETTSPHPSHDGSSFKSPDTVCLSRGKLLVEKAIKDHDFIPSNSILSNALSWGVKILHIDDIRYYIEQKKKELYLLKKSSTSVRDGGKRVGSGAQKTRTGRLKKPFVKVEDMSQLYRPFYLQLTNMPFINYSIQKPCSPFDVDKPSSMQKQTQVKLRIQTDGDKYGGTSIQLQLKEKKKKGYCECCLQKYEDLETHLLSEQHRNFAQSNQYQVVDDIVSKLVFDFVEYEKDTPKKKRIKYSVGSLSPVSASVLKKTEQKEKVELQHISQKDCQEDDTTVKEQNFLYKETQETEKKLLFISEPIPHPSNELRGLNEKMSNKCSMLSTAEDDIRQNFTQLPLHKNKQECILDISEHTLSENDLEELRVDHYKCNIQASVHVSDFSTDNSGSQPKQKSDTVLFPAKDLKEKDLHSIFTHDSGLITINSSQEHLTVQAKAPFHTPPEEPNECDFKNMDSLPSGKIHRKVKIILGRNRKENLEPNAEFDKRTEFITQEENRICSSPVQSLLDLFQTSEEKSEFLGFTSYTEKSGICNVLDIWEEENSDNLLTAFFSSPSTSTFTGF

Ki [nM] | Structure (SMILES)
< 10 | CC(C)(CNC(=O)C1CC1)CNc1cc(-c2c[nH]c3ncccc23)cc(Cl)n1 [Example 124, N-(3-{[6-chloro-4-(1H-pyrrolo[2,3-b]pyridin-3-yl)pyridin-2-yl]amino}-2,2-dimethylpropyl)cyclopropanecarboxamide]
< 10 | O=C(CN1CCCC1)NC1CCCC(Nc2cc(-c3c[nH]c4ncccc34)cc(Cl)n2)C1 (stereo not drawn) [Example 130, N-(3-{[6-chloro-4-(1H-pyrrolo[2,3-b]pyridin-3-yl)pyridin-2-yl]amino}cyclohexyl)-2-(pyrrolidin-1-yl)acetamide]
< 10 | O=C(N[C@H]1CC[C@H](Nc2cc(-c3c[nH]c4ncccc34)cc(Cl)n2)CC1)C1CCC1 [Example 133, N-(trans-4-{[6-chloro-4-(1H-pyrrolo[2,3-b]pyridin-3-yl)pyridin-2-yl]amino}cyclohexyl)cyclobutanecarboxamide]
< 10 | CS(=O)(=O)N1CCCC(Nc2cc(-c3c[nH]c4ncccc34)cc(Cl)n2)C1 (stereo not drawn) [Example 138, 6-chloro-N-[1-(methylsulfonyl)piperidin-3-yl]-4-(1H-pyrrolo[2,3-b]pyridin-3-yl)pyridin-2-amine]
< 10 | O=C1CC[C@@H](C(=O)NC2CCCC(Nc3cc(-c4c[nH]c5ncccc45)cc(Cl)n3)C2)N1 (stereo partly drawn) [Example 139, N-(3-{[6-chloro-4-(1H-pyrrolo[2,3-b]pyridin-3-yl)pyridin-2-yl]amino}cyclohexyl)-5-oxoprolinamide]
< 10 | O=C(CN1CCN(c2ccccn2)CC1)N[C@H]1CC[C@H](Nc2cc(-c3c[nH]c4ncccc34)cc(Cl)n2)CC1 [Example 142, N-(trans-4-{[6-chloro-4-(1H-pyrrolo[2,3-b]pyridin-3-yl)pyridin-2-yl]amino}cyclohexyl)-2-[4-(pyridin-2-yl)piperazin-1-yl]acetamide]
< 10 | O=C1CC(C(=O)N[C@H]2CC[C@H](Nc3cc(-c4c[nH]c5ncccc45)cc(Cl)n3)CC2)CC(=O)N1 [Example 144, N-(trans-4-{[6-chloro-4-(1H-pyrrolo[2,3-b]pyridin-3-yl)pyridin-2-yl]amino}cyclohexyl)-2,6-dioxopiperidine-4-carboxamide]
< 10 | NCCS(=O)(=O)NC1CCCC(Nc2cc(-c3c[nH]c4ncccc34)cc(Cl)n2)C1 (stereo not drawn) [Example 145, 2-amino-N-(3-{[6-chloro-4-(1H-pyrrolo[2,3-b]pyridin-3-yl)pyridin-2-yl]amino}cyclohexyl)ethanesulfonamide]
< 10 | COc1cnc2[nH]cc(-c3cc(Cl)nc(N[C@H]4CC[C@H](O)CC4)c3)c2c1 [Example 149, trans-4-{[6-chloro-4-(5-methoxy-1H-pyrrolo[2,3-b]pyridin-3-yl)pyridin-2-yl]amino}cyclohexanol]
< 10 | O=C(CN1CCOCC1)Nc1cc(-c2c[nH]c3ncccc23)cc(Cl)n1 [Example 150, N-[6-chloro-4-(1H-pyrrolo[2,3-b]pyridin-3-yl)pyridin-2-yl]-2-(morpholin-4-yl)acetamide]
< 10 | CN(C)C1CCC(CC2CCC(Nc3cc(-c4c[nH]c5ncccc45)cc(Cl)n3)CC2)CC1 (stereo not drawn) [Example 155, 6-chloro-N-(4-{[4-(dimethylamino)cyclohexyl]methyl}cyclohexyl)-4-(1H-pyrrolo[2,3-b]pyridin-3-yl)pyridin-2-amine]
< 10 | Clc1cc(-c2c[nH]c3ncccc23)cc(NC2CCC(CC3CCC(NC4CCCCC4)CC3)CC2)n1 (stereo not drawn) [Example 156]
< 10 | CC(=O)N1CCC(C2CCC(Nc3cc(-c4c[nH]c5ncccc45)cc(Cl)n3)CC2)CC1 (stereo not drawn) [Example 163, 1-[4-(4-{[6-chloro-4-(1H-pyrrolo[2,3-b]pyridin-3-yl)pyridin-2-yl]amino}cyclohexyl)piperidin-1-yl]ethanone]
< 10 | CC(=O)NCCS(=O)(=O)NC1CCCC(Nc2cc(-c3c[nH]c4ncccc34)cc(Cl)n2)C1 (stereo not drawn) [Example 164, N-{2-[(3-{[6-chloro-4-(1H-pyrrolo[2,3-b]pyridin-3-yl)pyridin-2-yl]amino}cyclohexyl)sulfamoyl]ethyl}acetamide]
< 10 | O=C(NCCS(=O)(=O)NC1CCCC(Nc2cc(-c3c[nH]c4ncccc34)cc(Cl)n2)C1)C1CC1 (stereo not drawn) [Example 165, N-{2-[(3-{[6-chloro-4-(1H-pyrrolo[2,3-b]pyridin-3-yl)pyridin-2-yl]amino}cyclohexyl)sulfamoyl]ethyl}cyclopropanecarboxamide]

Continued, compound first:

Structure (SMILES) | Ki [nM]
O=C(C1CC1)N1CCC(Nc2cc(-c3c[nH]c4ncccc34)cc(Cl)n2)CC1 [Example 126, (4-{[6-chloro-4-(1H-pyrrolo[2,3-b]pyridin-3-yl)pyridin-2-yl]amino}piperidin-1-yl)(cyclopropyl)methanone] | < 10
C[C@@H](C(=O)N[C@H]1CC[C@H](Nc2cc(-c3c[nH]c4ncccc34)cc(Cl)n2)CC1)N(C)C [Example 127, N-(trans-4-{[6-chloro-4-(1H-pyrrolo[2,3-b]pyridin-3-yl)pyridin-2-yl]amino}cyclohexyl)-N^2,N^2-dimethyl-L-alaninamide] | < 10
Clc1cc(-c2c[nH]c3ncccc23)cc(NC2CCN(C3CCC3)CC2)n1 [Example 128, 6-chloro-N-(1-cyclobutylpiperidin-4-yl)-4-(1H-pyrrolo[2,3-b]pyridin-3-yl)pyridin-2-amine] | < 10
O=C(NC1CCCC(Nc2cc(-c3c[nH]c4ncccc34)cc(Cl)n2)C1)C1CCCCN1 (stereo not drawn) [Example 129, N-(3-{[6-chloro-4-(1H-pyrrolo[2,3-b]pyridin-3-yl)pyridin-2-yl]amino}cyclohexyl)piperidine-2-carboxamide] | < 10
NC1(C(=O)NC2CCCC(Nc3cc(-c4c[nH]c5ncccc45)cc(Cl)n3)C2)CCC1 (stereo not drawn) [Example 135, 1-amino-N-(3-{[6-chloro-4-(1H-pyrrolo[2,3-b]pyridin-3-yl)pyridin-2-yl]amino}cyclohexyl)cyclobutanecarboxamide] | < 10
O=C(CNC1CCCC1)N[C@H]1CC[C@H](Nc2cc(-c3c[nH]c4ncccc34)cc(Cl)n2)CC1 [Example 137, N-(trans-4-{[6-chloro-4-(1H-pyrrolo[2,3-b]pyridin-3-yl)pyridin-2-yl]amino}cyclohexyl)-N^2-cyclopentylglycinamide] | < 10
O=C(CN1CCOCC1)N[C@H]1CC[C@H](Nc2cc(-c3c[nH]c4ncccc34)cc(Cl)n2)CC1 [Example 141, N-(trans-4-{[6-chloro-4-(1H-pyrrolo[2,3-b]pyridin-3-yl)pyridin-2-yl]amino}cyclohexyl)-2-(morpholin-4-yl)acetamide] | < 10
NC1CCC(CC2CCC(Nc3cc(-c4c[nH]c5ncccc45)cc(Cl)n3)CC2)CC1 (stereo not drawn) [Example 143, N-{4-[(4-aminocyclohexyl)methyl]cyclohexyl}-6-chloro-4-(1H-pyrrolo[2,3-b]pyridin-3-yl)pyridin-2-amine] | < 10
CN1CCCC(CNc2cc(-c3c[nH]c4ncccc34)cc(Cl)n2)C1 (stereo not drawn) [Example 146, 6-chloro-N-[(1-methylpiperidin-3-yl)methyl]-4-(1H-pyrrolo[2,3-b]pyridin-3-yl)pyridin-2-amine] | < 10
CC(=O)N1CCCC(Nc2cc(-c3c[nH]c4ncccc34)cc(Cl)n2)C1 (stereo not drawn) [Example 147, 1-(3-{[6-chloro-4-(1H-pyrrolo[2,3-b]pyridin-3-yl)pyridin-2-yl]amino}piperidin-1-yl)ethanone] | < 10
CN1CCC(N[C@H]2CC[C@H](Nc3cc(-c4c[nH]c5ncccc45)cc(Cl)n3)CC2)CC1 [Example 148, trans-N-[6-chloro-4-(1H-pyrrolo[2,3-b]pyridin-3-yl)pyridin-2-yl]-N′-(1-methylpiperidin-4-yl)cyclohexane-1,4-diamine] | < 10
O=C(CN[C@H]1CC[C@H](O)CC1)N[C@H]1CC[C@H](Nc2cc(-c3c[nH]c4ncccc34)cc(Cl)n2)CC1 [Example 152, N-(trans-4-{[6-chloro-4-(1H-pyrrolo[2,3-b]pyridin-3-yl)pyridin-2-yl]amino}cyclohexyl)-N^2-(trans-4-hydroxycyclohexyl)glycinamide] | < 10
O=C(CNCCN1CCOCC1)N[C@H]1CC[C@H](Nc2cc(-c3c[nH]c4ncccc34)cc(Cl)n2)CC1 [Example 153, N-(trans-4-{[6-chloro-4-(1H-pyrrolo[2,3-b]pyridin-3-yl)pyridin-2-yl]amino}cyclohexyl)-N^2-[2-(morpholin-4-yl)ethyl]glycinamide] | < 10
Clc1cc(-c2c[nH]c3ncccc23)cc(N[C@H]2CC[C@H](NC3CCN(C4CCCCC4)CC3)CC2)n1 [Example 157, trans-N-[6-chloro-4-(1H-pyrrolo[2,3-b]pyridin-3-yl)pyridin-2-yl]-N′-(1-cyclohexylpiperidin-4-yl)cyclohexane-1,4-diamine] | < 10
Clc1cc(-c2c[nH]c3ncccc23)cc(NC2CCC(C3CCNCC3)CC2)n1 (stereo not drawn) [Example 159, 6-chloro-N-[4-(piperidin-4-yl)cyclohexyl]-4-(1H-pyrrolo[2,3-b]pyridin-3-yl)pyridin-2-amine] | < 10
O=C(N[C@H]1CC[C@H](Nc2cc(-c3c[nH]c4ncccc34)cc(Cl)n2)CC1)C1CNC1 [Example 160, N-(trans-4-{[6-chloro-4-(1H-pyrrolo[2,3-b]pyridin-3-yl)pyridin-2-yl]amino}cyclohexyl)azetidine-3-carboxamide] | < 10
CC(=O)NC1CCC(N[C@H]2CC[C@H](Nc3cc(-c4c[nH]c5ncccc45)cc(Cl)n3)CC2)CC1 (stereo partly drawn) [Example 161, N-{4-[(trans-4-{[6-chloro-4-(1H-pyrrolo[2,3-b]pyridin-3-yl)pyridin-2-yl]amino}cyclohexyl)amino]cyclohexyl}acetamide] | < 10
O=C(NC1CCC(N[C@H]2CC[C@H](Nc3cc(-c4c[nH]c5ncccc45)cc(Cl)n3)CC2)CC1)C1CC1 (stereo partly drawn) [Example 162, N-{4-[(trans-4-{[6-chloro-4-(1H-pyrrolo[2,3-b]pyridin-3-yl)pyridin-2-yl]amino}cyclohexyl)amino]cyclohexyl}cyclopropanecarboxamide] | < 10
